55 molecules from PubChem BioAssay AID1159565 (GlaxoSmithKline (GSK), 2015) can be followed below.

Calls of active or inactive are those of the source. The rule behind the calls is not given here.

Usually IC50 stands for the concentration that gives 50% inhibition.

The subject of the first test is T. cruzi-infected H9C2 cardiomyocytes, high-content imaging. The test can be described thus: intracellular T. cruzi amastigote inhibition, imaging, H9C2 host cardiomyocytes, host toxicity (AID 1159565).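 Note: infected cells incubated 72 h after plating.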
Details: not given
With `CCCn1c(NC(=O)Cc2ccc(Cl)cc2)nc2ccccc21`, the IC50 is 2 µM. As for `COc1ccc(CN2CCCCC2c2nc(-c3cccnc3)no2)cc1` (configuration not stated), the concentration for half-maximal inhibition (IC50) is 0.79 µM.

As for `Cc1cc(=O)n2nc(Oc3ccc(C#N)cc3Cl)sc2n1`, the IC50 is 32 µM. For `Cc1ccc2onc(Nc3ccnc(Nc4cccc(S(C)(=O)=O)c4)n3)c2c1`, the IC50 is 0.63 µM.

With `Cc1ccc2sc(NC(=O)Cn3cnc([N+](=O)[O-])n3)nc2c1`, the IC50 was 4 µM. Take `CC(C)(C)Nc1nc(Nc2ccc3c(c2)CS(=O)(=O)C3)nc2[nH]ccc12`: the IC50 is 32 µM. As to `O=C(Nc1cccc(Cl)c1)Nc1ccc([N+](=O)[O-])cc1Cl`, the IC50 is 2 µM.

Consider `CC(C)c1nn(-c2nc(N)nc(-c3ccccn3)n2)c(N)c1C1CCCCC1`, for which the IC50 is 1.3 µM. Same read-out and setting: the same measure for `COc1cccc(C(=O)[C@H]2C[C@@H]2CN(Cc2cccnc2)Cc2cccnc2)c1`: 0.063 µM; for `Nc1nc(-c2ccccc2)cc(-c2nc3ncccc3[nH]2)n1`: 2 µM. Regarding `CS(=O)(=O)c1cccc(-c2cnc(N)c3c(-c4ccc(CO)cc4)csc23)c1`, the half-inhibitory concentration (IC50) was 0.63 µM. Still for that read-out and setting: the same measure for `COc1cccc(CN(C)Cc2nc(N)c3c(C)c(C)sc3n2)c1`: 16 µM; for `OCC1CCCCN1c1cc(-c2ccccn2)nc(Nc2ccccc2)n1` (configuration not stated): 4 µM; for `CC(=O)Nc1ccc(-c2csc(NC(=O)c3ccc([N+](=O)[O-])s3)n2)cc1`: 0.13 µM. Regarding `N#Cc1cccc(CN2CCC(N(Cc3cccnc3)C(=O)c3cc(F)c(F)cc3F)CC2)c1`, the IC50 was 0.4 µM. Consider `O=[N+]([O-])c1ccc(-c2nnn(-c3ccc(Cl)cc3)n2)o1`, for which the IC50 was 0.79 µM. For the molecule `Cc1nccn1C1CCCN(C(=O)c2cc3c(F)cccc3s2)C1` (configuration not stated), the IC50 is 1 µM. For the molecule `COc1ccc([N+](=O)[O-])cc1NC(=O)Nc1cccc(Cl)c1`, the IC50 was 10 µM. Same read-out and setting: the same measure for `O=C(Cc1ccccc1)Nc1[nH]nc2sc(C(=O)NC3CCCC3)cc12`: 13 µM; for `Cc1ccc(S(=O)(=O)Nc2ccc(CN3CCN(C(=O)c4cccc(C#N)c4)CC3)cc2)cc1`: 0.5 µM. As to `COc1cccc(CCNC(=O)C(c2cn[nH]c2)N2CCN(c3ccc(Cl)cc3)CC2)c1` (configuration not stated), the IC50 was 0.02 µM. Consider `N#Cc1ccc(Br)cc1[N+](=O)[O-]`, for which the IC50 was 0.79 µM.

Regarding `O=C(Nc1ccc(C(=O)N2CCCC2c2ccc3c(c2)OCCCO3)cc1)c1ccco1` (configuration not stated), the IC50 is 1 µM.

In the case of `Cc1ccc(-c2csc(NC(=O)C=Cc3ccc(S(=O)(=O)N4CCOCC4)cc3)n2)o1`, the IC50 is 10 µM. `Cc1cc(Nc2cc(C3CC3)[nH]n2)nc(N2CCC[C@H]2C(N)=O)n1`: the IC50 is 0.063 µM. The same measure, in the same setting: the same measure for `COc1cc(NC(=O)Nc2cccc(CNC(=O)OC3CCCCC3)c2)ccc1-c1cnco1`: 25 µM; for `CCN(CC)S(=O)(=O)c1ccc(C)c(NC(=O)c2cc(Cl)c3c(c2)OCO3)c1`: > 50 µM (inactive).

With `N#Cc1ccc(C(=O)Nc2cccc(-c3cccc(CN4CCC(O)CC4)c3)c2)cc1`, the IC50 is 7.9 µM.

Regarding `COc1cc(OC)cc(C(NS(=O)(=O)c2ccc(Cl)c(C(F)(F)F)c2)c2nccn2C)c1` (configuration not stated), the half-maximal inhibitory concentration (IC50) is 6.3 µM. On to `C[C@@H](Oc1cc(-n2cnc3ccc(CC(O)CO)cc32)sc1C(N)=O)c1ccccc1Cl` (some centres not stated), for which the concentration for half-maximal inhibition (IC50) was 50 µM.

`O=C(c1ccc(O)c(Cl)c1)N1CCN(c2cnccn2)CC1`: the IC50 is > 50 µM (inactive). With `N#Cc1cccc(CNc2ccc(-c3cnn(CC4CC4)c(=O)c3C#N)cc2)c1`, the IC50 is 7.9 µM. With `O=C(Cn1cnc2c(-c3ccccc3)csc2c1=O)N1CCCCC1`, the IC50 is 4 µM. On the same count and under the same terms, the result for `Cc1ccc2c(c1)-c1onc(C(=O)N3CCCCC3c3cccnc3)c1CO2` (configuration not stated) reads 0.13 µM; that for `CCC(CC)C(=O)Nc1ccc(-c2nnc(-c3ccc(OC)cc3)o2)cc1`, 13 µM. For `O=C(c1cccc(Cl)c1Cl)N1CCn2c1nc(-c1ccncc1)cc2=O`, the concentration for half-maximal inhibition (IC50) is 0.32 µM. For `Cc1[nH]c2ccccc2c(=O)c1Cc1c(C)[nH]c2ccccc2c1=O`, the IC50 was 3.2 µM. For `CN1CCC(N(C)c2nccc(N3CCN(C(=O)c4cccc(-c5cccnc5)c4)CC3)n2)CC1`, the half-inhibitory concentration (IC50) is 1.3 µM.

With `CCC(=O)Nc1ccc(-c2nc3ccc(Cl)cc3[nH]2)cc1`, the IC50 was 1.6 µM.

Regarding `Cc1cc(N(C)C)nc2ccc(Cc3cnc(N)nc3N)cc12`, the IC50 was 6.3 µM.

For the molecule `CN(Cc1nnnn1C1CCN(Cc2ccc(-n3ccnc3)cc2)CC1)c1ccc(F)cc1F`, the IC50 was 0.32 µM. As for `CC(=O)Nc1ccc(Nc2nccc(-c3cnn4ncccc34)n2)cc1C(F)(F)F`, the 50% inhibitory concentration (IC50) was 0.5 µM. Regarding `Cc1ccc(NC(=O)c2ccc([N+](=O)[O-])s2)cc1S(=O)(=O)N1CCOCC1`, the IC50 is 0.4 µM. Take `O=C(NCC(c1cccs1)N1CCOCC1)c1ccc([N+](=O)[O-])o1` (configuration not stated): the IC50 was 16 µM. Take `CC(C)Nc1nccc(-c2c(-c3ccc(F)cc3)ncn2C2CCOCC2)n1`: the IC50 was 0.32 µM. The same measure, in the same setting: the result for `CCOC(=O)c1noc(N)c1-c1ccccc1` reads > 50 µM (inactive); that for `COc1ccc(Nc2nc(NC3CCC(O)CC3)ncc2Br)c(C(N)=O)c1` (configuration not stated), 3.2 µM; that for `COc1cccc(C(=O)[C@H]2C[C@@H]2CN(Cc2ccccn2)Cc2ccccn2)c1`, 1.3 µM. For the molecule `Cc1cn[nH]c1C1CCCN(Cc2nc3ccccc3n2C)C1` (configuration not stated), the IC50 was 20 µM.

For the molecule `COc1ccc(C(=O)Nc2ccc(NC(=O)CO)cc2)cc1`, the IC50 was > 50 µM (inactive).

Take `Cc1ccc(NC(=O)C(C)n2nc([N+](=O)[O-])c(Br)c2C)cc1Cl` (configuration not stated): the IC50 is 6.3 µM.

Regarding `CNc1nc(C)nc(N2CCc3cc(C(=O)NCc4ccc(-c5nccn5C)cc4Cl)ccc32)n1`, the IC50 was 13 µM. Take `Cc1cc(C)n(-c2nc(NC(C)C)nc(NC(C)(C)C)n2)n1`: the IC50 is 1.6 µM. Take `CC(C)(C)C(=O)Nc1cc(C2CC2)nn1-c1nc2c(c(=O)[nH]1)CCCC2`: the IC50 is 0.5 µM. Consider `CCCCCNC(=O)c1c[nH]c2ccc(S(=O)(=O)N(C)c3ccc(OCC)cc3)cc2c1=O`, for which the IC50 was > 50 µM (inactive).

Staying with this test, now noted: measured here: H9C2 host cell toxicity.
Consider `CCCn1c(NC(=O)Cc2ccc(Cl)cc2)nc2ccccc21`, for which the IC50 is above 50 µM.

`COc1ccc(CN2CCCCC2c2nc(-c3cccnc3)no2)cc1` (configuration not stated): the concentration for half-maximal inhibition (IC50) was above 50 µM.

Regarding `Cc1cc(=O)n2nc(Oc3ccc(C#N)cc3Cl)sc2n1`, the IC50 worked out at 32 µM. On the same count and under the same terms, the result for `Cc1ccc2onc(Nc3ccnc(Nc4cccc(S(C)(=O)=O)c4)n3)c2c1` reads 5 µM; that for `Cc1ccc2sc(NC(=O)Cn3cnc([N+](=O)[O-])n3)nc2c1`, above 50 µM; that for `CC(C)(C)Nc1nc(Nc2ccc3c(c2)CS(=O)(=O)C3)nc2[nH]ccc12`, 1 µM. Turning to `O=C(Nc1cccc(Cl)c1)Nc1ccc([N+](=O)[O-])cc1Cl`, the IC50 was 4 µM. As for `CC(C)c1nn(-c2nc(N)nc(-c3ccccn3)n2)c(N)c1C1CCCCC1`, the IC50 was determined as 3.2 µM. Consider `COc1cccc(C(=O)[C@H]2C[C@@H]2CN(Cc2cccnc2)Cc2cccnc2)c1`, for which the half-maximal inhibitory concentration (IC50) is above 50 µM. Still for that read-out and setting: the result for `Nc1nc(-c2ccccc2)cc(-c2nc3ncccc3[nH]2)n1` reads 13 µM. Consider `CS(=O)(=O)c1cccc(-c2cnc(N)c3c(-c4ccc(CO)cc4)csc23)c1`, for which the IC50 is above 50 µM. As for `COc1cccc(CN(C)Cc2nc(N)c3c(C)c(C)sc3n2)c1`, the half-inhibitory concentration (IC50) is above 50 µM. As to `OCC1CCCCN1c1cc(-c2ccccn2)nc(Nc2ccccc2)n1` (configuration not stated), the half-maximal inhibitory concentration (IC50) was 0.5 µM. `CC(=O)Nc1ccc(-c2csc(NC(=O)c3ccc([N+](=O)[O-])s3)n2)cc1` displayed an IC50 of 5 µM. For the molecule `N#Cc1cccc(CN2CCC(N(Cc3cccnc3)C(=O)c3cc(F)c(F)cc3F)CC2)c1`, the IC50 was above 50 µM.

For the molecule `O=[N+]([O-])c1ccc(-c2nnn(-c3ccc(Cl)cc3)n2)o1`, the IC50 turned out to be 10 µM.

Consider `Cc1nccn1C1CCCN(C(=O)c2cc3c(F)cccc3s2)C1` (configuration not stated), for which the concentration for half-maximal inhibition (IC50) was above 50 µM.

The molecule `COc1ccc([N+](=O)[O-])cc1NC(=O)Nc1cccc(Cl)c1` yielded an IC50 above 50 µM. On the same count and under the same terms, the same measure for `O=C(Cc1ccccc1)Nc1[nH]nc2sc(C(=O)NC3CCCC3)cc12`: 1.3 µM; for `Cc1ccc(S(=O)(=O)Nc2ccc(CN3CCN(C(=O)c4cccc(C#N)c4)CC3)cc2)cc1`: above 50 µM; for `COc1cccc(CCNC(=O)C(c2cn[nH]c2)N2CCN(c3ccc(Cl)cc3)CC2)c1` (configuration not stated): 40 µM. `N#Cc1ccc(Br)cc1[N+](=O)[O-]` displayed an IC50 of 40 µM. `O=C(Nc1ccc(C(=O)N2CCCC2c2ccc3c(c2)OCCCO3)cc1)c1ccco1` (configuration not stated) showed an IC50 above 50 µM. As for `Cc1ccc(-c2csc(NC(=O)C=Cc3ccc(S(=O)(=O)N4CCOCC4)cc3)n2)o1`, the IC50 turned out to be 32 µM. In turn, `Cc1cc(Nc2cc(C3CC3)[nH]n2)nc(N2CCC[C@H]2C(N)=O)n1` showed an IC50 of 0.13 µM.

For `COc1cc(NC(=O)Nc2cccc(CNC(=O)OC3CCCCC3)c2)ccc1-c1cnco1`, the IC50 came to 16 µM. As for `CCN(CC)S(=O)(=O)c1ccc(C)c(NC(=O)c2cc(Cl)c3c(c2)OCO3)c1`, the IC50 worked out at 25 µM.
